# According to patent publication US20250320496A1, “MODULATION OF ABCB11 GENE TRANSCRIPTION USING ANTISENSE OLIGONUCLEOTIDES TARGETING REGULATORY RNAS” (CAMP4 Therapeutics Corporation, priority 2022, published 2025):
# Strand notation (5' to 3'): a small letter for the sugar, then the base; units joined by * are phosphorothioate-linked, units joined directly phosphodiester-linked; [ ] holds rarer units or linkages, { } end groups; capitals alone tell only the bases. e = 2'-O-(2-methoxyethyl) (MOE); l = locked nucleic acid (LNA); [5mC] = 5-methylcytosine; d = 2'-deoxy (DNA)
# Test system: human ABCB11 mRNA
# Assay: ASO treatment of primary human hepatocytes (PHH), ABCB11 mRNA by RT-qPCR normalized to B2M
# Assay type: cell-based
# Parameters: ABCB11 mRNA, dose titration: unit of the concentration uncertain
# Conditions: for ABCB11 mRNA FC (5 μM ASO vs. UNT) / ABCB11 FC mRNA (5 μM ASO vs. untreated): primary human hepatocytes; for ABCB11 mRNA FC (5 μM ASO vs. UNT): normalized to untreated PHHs (UNT); for ABCB11 FC mRNA (5 μM ASO vs. untreated): 5 μM ASO with PO-modifications, normalized to untreated hepatocytes
# How it was run: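 Plated primary human hepatocytes were treated 4 h post-thaw with ASO (e.g., 1.25–10 μM; initial screen 5 μM) in medium containing 0.3 mg/ml Matrigel for 72 hrs. Total RNA was reverse-transcribed and ABCB11 mRNA measured by Taqman RT-qPCR, normalized to B2M, with fold change versus untreated PHHs.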
substance,measurement,setting,value
CO-7104 (eT*eA*eT*e[5mC]*eT*dG*dG*eA*dA*dA*eA*dT*dA*eA*dT*dG*e[5mC]*d[5mC]*dT*eT*eT*e[5mC]*eT*eA; antisense),ABCB11 mRNA FC (5 μM ASO vs. UNT),,0.918 fold change
CO-7165 (antisense eT*eT*eA*eA*eT*eT*e[5mC]*eT*eA*e[5mC]*eA*eG*eA*eG*eG*eG*eA*eG*e[5mC]*eA),ABCB11 mRNA FC (5 μM ASO vs. UNT),,1.329 fold change
CO-7096 (eA*e[5mC]*e[5mC]*e[5mC]*e[5mC]*l[5mC]*e[5mC]*eT*e[5mC]*eA*l[5mC]*e[5mC]*eT*eT*eG*lG*eT*eT*e[5mC]*e[5mC]; antisense),ABCB11 mRNA FC (5 μM ASO vs. UNT),,1.157 fold change
CO-4483 (antisense eT*e[5mC]*eA*e[5mC]*eA*eA*eA*eT*eA*eG*eA*eT*eT*eG*eA*eG*eG*eG*eT*e[5mC]),ABCB11 mRNA FC (5 μM ASO vs. UNT),,1.041 fold change
CO-7170 (antisense eT*e[5mC]*eT*eT*eA*eT*eT*eT*eG*eG*e[5mC]*eG*eT*eT*eA*eT*eT*eA*eA*eT),ABCB11 mRNA FC (5 μM ASO vs. UNT),,1.477 fold change
CO-6674 (antisense eT*eG*eG*eA*eA*eG*eG*eA*e[5mC]*eA*e[5mC]*eA*eA*eT*eT*eT*e[5mC]*eT*eG*eT),ABCB11 mRNA FC (5 μM ASO vs. UNT),,1.175 fold change
CO-11205 (antisense eT*eGeT*eT*eT*eTeG*e[5mC]*eT*eTeG*eG*eT*e[5mC]eA*eA*eG*eAeG*eG),ABCB11 FC mRNA (5 μM ASO vs. untreated),,1.11 fold change
CO-4516 (antisense eA*eT*eG*eA*e[5mC]*eA*eT*eG*eA*eT*eA*eG*e[5mC]*eA*e[5mC]*e[5mC]*e[5mC]*eA*eA*e[5mC]),ABCB11 mRNA FC (5 μM ASO vs. UNT),,1.033 fold change
CO-11223 (antisense eG*eT*lG*eGeAlGe[5mC]*eA*lA*eA*e[5mC]*lT*eA*eGlGe[5mC]eA*l[5mC]*eT*eG),ABCB11 FC mRNA (5 μM ASO vs. untreated),,1.80 fold change
CO-4033 (antisense eG*eA*eA*eA*e[5mC]*e[5mC]*eT*eT*eT*eT*eA*eA*e[5mC]*eT*e[5mC]*eT*e[5mC]*e[5mC]*eA*e[5mC]),ABCB11 mRNA FC (5 μM ASO vs. UNT),,1.472 fold change
CO-4056 (antisense eG*e[5mC]*eT*eT*eA*eT*eT*eT*eG*eA*e[5mC]*eT*e[5mC]*eA*eA*eG*eA*e[5mC]*e[5mC]*eT),ABCB11 mRNA FC (5 μM ASO vs. UNT),,1.115 fold change
CO-4500 (antisense eA*eG*eA*e[5mC]*eT*eT*eT*eG*eG*e[5mC]*e[5mC]*eA*eG*eG*e[5mC]*eA*eA*eG*eA*e[5mC]),ABCB11 mRNA FC (5 μM ASO vs. UNT),,1.109 fold change
CO-7062 (eT*e[5mC]*lT*eG*lG*eA*lA*eA*lA*eT*lA*eA*lT*eG*l[5mC]*e[5mC]*lT*eT*eT*e[5mC]; antisense),ABCB11 mRNA FC (5 μM ASO vs. UNT),,1.218 fold change
CO-4489 (antisense e[5mC]*eA*e[5mC]*eA*eG*eA*eG*eT*eG*e[5mC]*e[5mC]*eA*eA*eG*eG*eA*eG*eT*eT*eA),ABCB11 mRNA FC (5 μM ASO vs. UNT),,1.083 fold change
CO-11233 (antisense eG*eTlG*eGeA*lGe[5mC]*eAlA*eAe[5mC]*lTeA*eGlG*e[5mC]eA*l[5mC]eT*eG),ABCB11 FC mRNA (5 μM ASO vs. untreated),,1.60 fold change
CO-6969 (antisense eT*eG*eT*eG*eG*eA*eT*eG*eT*eA*eG*eA*eT*eG*eA*eA*eT*eG*eG*e[5mC]),ABCB11 mRNA FC (5 μM ASO vs. UNT),,1.266 fold change
CO-4019 (antisense eA*eG*eA*eG*eT*eG*eG*eT*eG*eT*eA*e[5mC]*eA*eT*eG*eG*eG*eT*eG*eT),ABCB11 mRNA FC (5 μM ASO vs. UNT),,1.028 fold change
CO-11209 (antisense eT*eGeT*eTeT*eTeG*e[5mC]eT*eTeG*eGeT*e[5mC]eA*eAeG*eAeG*eG),ABCB11 FC mRNA (5 μM ASO vs. untreated),,1.11 fold change
CO-7185 (antisense eT*eG*eG*e[5mC]*eG*lT*dT*dA*lT*dT*dA*lA*dT*dT*l[5mC]*eT*eA*e[5mC]*eA*eG),ABCB11 mRNA FC (5 μM ASO vs. UNT),,1.327 fold change
CO-4011 (antisense eT*e[5mC]*e[5mC]*eA*eA*e[5mC]*eA*e[5mC]*e[5mC]*eG*eT*eA*e[5mC]*eT*e[5mC]*eA*eT*eT*eT*e[5mC]),ABCB11 mRNA FC (5 μM ASO vs. UNT),,1.184 fold change
CO-7148: derivative ASO with additional chemical modifications based on parent ASO CO-4517 (antisense e[5mC]*e[5mC]*eT*eT*eA*eG*dG*dA*dG*dG*dA*dT*dT*dA*dT*dT*eT*eA*eA*e[5mC]*e[5mC]*eT),ABCB11 mRNA FC (5 μM ASO vs. UNT),,1.527 fold change
CO-7068 (e[5mC]*eA*eT*eT*eT*lA*dG*dA*lG*dA*d[5mC]*lA*dA*dA*lG*eA*eA*eT*e[5mC]*eG; antisense),ABCB11 mRNA FC (5 μM ASO vs. UNT),,1.077 fold change
CO-6991 (antisense eT*eG*eG*eA*lT*eG*eT*eA*lG*eA*eT*eG*lA*eA*eT*eG*lG*e[5mC]*eA*eA),ABCB11 mRNA FC (5 μM ASO vs. UNT),,1.193 fold change
CO-7159 (antisense eG*eG*eA*eG*eG*eT*eG*eG*eA*eG*e[5mC]*eA*eA*eA*e[5mC]*eT*eA*eG*eG*e[5mC]),ABCB11 mRNA FC (5 μM ASO vs. UNT),,1.326 fold change
CO-6977 (antisense eG*eG*eT*eA*eA*eG*eT*eT*e[5mC]*e[5mC]*eT*eG*eA*eA*eG*eT*eG*eG*eA*eG),ABCB11 mRNA FC (5 μM ASO vs. UNT),,1.15 fold change
CO-11232 (antisense eG*eT*lGeG*eAlG*e[5mC]eA*lAeA*e[5mC]lT*eAeG*lGe[5mC]*eAl[5mC]*eT*eG),ABCB11 FC mRNA (5 μM ASO vs. untreated),,1.72 fold change
CO-7048 (antisense eT*eG*eG*eA*eG*eT*eT*eG*eT*eG*eT*eT*eT*eT*eG*e[5mC]*eT*eT*eG*eG),ABCB11 mRNA FC (5 μM ASO vs. UNT),,1.175 fold change
CO-4016 (antisense eT*eT*eT*eT*eA*eA*e[5mC]*eT*eT*eG*eG*e[5mC]*eT*eT*eT*eG*eT*eG*eA*eA),ABCB11 mRNA FC (5 μM ASO vs. UNT),,1.294 fold change
CO-11220 (antisense eG*eT*lGeG*lAeG*l[5mC]eA*lAeA*l[5mC]eT*lAeG*lGe[5mC]*lAe[5mC]*eT*eG),ABCB11 FC mRNA (5 μM ASO vs. untreated),,2.22 fold change
CO-11226 (antisense eG*eT*lGeG*eA*lG*e[5mC]*eAlA*eA*e[5mC]*lT*eAeG*lG*e[5mC]*eA*l[5mC]eT*eG),ABCB11 FC mRNA (5 μM ASO vs. untreated),,2.31 fold change
CO-7051 (antisense eA*e[5mC]*e[5mC]*eT*eT*eG*eG*eT*eT*e[5mC]*e[5mC]*e[5mC]*e[5mC]*e[5mC]*eT*eG*e[5mC]*eT*eG*eT),ABCB11 mRNA FC (5 μM ASO vs. UNT),,1.201 fold change
CO-11212 (antisense eG*eT*lGeGlAeGl[5mC]*eA*lA*eA*l[5mC]*eT*lA*eGlGe[5mC]lAe[5mC]*eT*eG),ABCB11 FC mRNA (5 μM ASO vs. untreated),,2.44 fold change
CO-4028 (antisense eT*eT*eA*eA*e[5mC]*eT*e[5mC]*eT*eT*eA*e[5mC]*eT*eT*eT*eG*eT*eG*eG*eA*eG),ABCB11 mRNA FC (5 μM ASO vs. UNT),,1.418 fold change
CO-4493 (antisense eA*eT*eG*eG*eT*eG*eA*eG*eA*eG*eT*eG*eT*eG*eG*eT*eT*e[5mC]*eA*eA),ABCB11 mRNA FC (5 μM ASO vs. UNT),,1.178 fold change
CO-4512 (antisense eA*eA*e[5mC]*eG*eGeAeAeG*eG*eGeTeT*eAeA*eA*eG*eG*eT*eA*eT),ABCB11 mRNA FC (5 μM ASO vs. UNT),,1.087 fold change
CO-7014 (antisense eA*eG*eT*eG*eA*eG*eG*e[5mC]*eA*eT*e[5mC]*eA*eG*eG*eT*eA*eA*eG*eT*eT*e[5mC]*e[5mC]),ABCB11 mRNA FC (5 μM ASO vs. UNT),,1.293 fold change
CO-4060 (antisense eG*eG*eA*eGeT*eGeA*eGeA*eG*eG*e[5mC]*eA*eT*eT*eT*eA*eG*eG*eG),ABCB11 mRNA FC (5 μM ASO vs. UNT),,1.117 fold change
CO-4529: ASO targeting eRNA RR64 of human ABCB11 (antisense eG*eT*eG*eG*eA*eG*e[5mC]*eA*eA*eA*e[5mC]*eT*eA*eG*eG*e[5mC]eA*e[5mC]*eT*eG),"ABCB11 mRNA, dose titration","PHHs, CO-3986 and CO-4529 tested at 2.5 (unit uncertain), 5 μM, and 10 μM",dose-dependent increase
same,ABCB11 mRNA FC (5 μM ASO vs. UNT),,1.05 fold change
CO-6992 (antisense eT*eG*eG*lA*eT*eGeT*lA*eG*eA*eT*lG*eA*eA*eT*lG*eG*e[5mC]*eA*eA),ABCB11 mRNA FC (5 μM ASO vs. UNT),,0.992 fold change
CO-6976 (antisense eT*e[5mC]*e[5mC]*eT*eG*eA*eA*eG*eT*eG*eG*eA*eG*eG*eT*eG*eG*eT*eG*eG),ABCB11 mRNA FC (5 μM ASO vs. UNT),,1.373 fold change
CO-7040 (antisense eA*eA*eG*eA*eG*eG*eA*eA*eA*eG*eA*eA*e[5mC]*eT*eG*eG*e[5mC]*e[5mC]*eG*eG),ABCB11 mRNA FC (5 μM ASO vs. UNT),,1.267 fold change
CO-7005 (antisense eG*eT*eG*eG*eA*eT*dG*dT*dA*dG*dA*dT*dG*dA*dA*dT*eG*eG*e[5mC]*eA*eA*eG),ABCB11 mRNA FC (5 μM ASO vs. UNT),,1.257 fold change
CO-7164 (antisense eA*eT*eT*e[5mC]*eT*eA*e[5mC]*eA*eG*eA*eG*eG*eG*eA*eG*e[5mC]*eA*eT*eA*eA),ABCB11 mRNA FC (5 μM ASO vs. UNT),,1.178 fold change
CO-4511 (antisense eG*eT*eG*eG*eG*eA*eG*eT*eG*eG*eT*eA*eA*eG*eA*eT*eT*eA*eG*e[5mC]),ABCB11 mRNA FC (5 μM ASO vs. UNT),,1.182 fold change
CO-6999 (antisense eG*eT*lG*eA*lG*eG*l[5mC]*eA*lT*e[5mC]*lA*eG*lGeT*lA*eA*lG*eT*eT*e[5mC]),ABCB11 mRNA FC (5 μM ASO vs. UNT),,1.24 fold change
CO-4486 (antisense eG*eG*eA*e[5mC]*eT*eG*e[5mC]*eG*eT*eG*eA*e[5mC]*eT*e[5mC]*eA*eG*eG*eT*eT*eA),ABCB11 mRNA FC (5 μM ASO vs. UNT),,1.151 fold change
CO-6997 (antisense eG*eT*eG*eA*lG*dG*d[5mC]*dA*lT*d[5mC]*dA*dG*lG*dT*dA*eA*lG*eT*eT*e[5mC]),ABCB11 mRNA FC (5 μM ASO vs. UNT),,1.058 fold change
CO-7147 (antisense e[5mC]*eT*eT*eA*lG*eG*eA*eG*eG*lA*eT*eT*eA*eT*lT*eT*eA*eA*e[5mC]*e[5mC]),ABCB11 mRNA FC (5 μM ASO vs. UNT),,1.272 fold change
CO-7023 (antisense e[5mC]*eT*eT*eA*eT*e[5mC]*eT*eG*eG*eA*eA*eA*eA*eT*eA*eA*eT*eG*e[5mC]*e[5mC]),ABCB11 mRNA FC (5 μM ASO vs. UNT),,1.338 fold change
CO-4014 (antisense eG*eA*eT*e[5mC]*eA*e[5mC]*eA*eA*eA*eT*eT*e[5mC]*eT*eA*e[5mC]*e[5mC]*e[5mC]*eT*eT*eG),ABCB11 mRNA FC (5 μM ASO vs. UNT),,1.003 fold change
